This note sets out measurements from PubChem BioAssay (NCI).

Among the test systems are SF-295 CNS; MALME-3M melanoma; SK-MEL-28 melanoma; SNB-19 CNS; COLO 205 colon; 786-0 renal; MDA-MB-435; CCRF-CEM leukemia; A498 renal; NCI-H522 lung.
Common to all, as to assay: NCI anticancer screen, dose series, 48 h

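How tested: cells in 96-well plates exposed to compound for 48 hours at five concentrations. Abbreviation: GI50, concentration required for 50% inhibition of growth. TGI is the concentration that stops growth completely.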

`Nc1cccc2c1CN(C1CCC(=O)NC1=O)C2=O` (stereo not given): the GI50 with SF-295 CNS, in the experiment with MALME-3M melanoma, in the experiment on SK-MEL-28 melanoma, in the experiment on SNB-19 CNS, in the experiment on COLO 205 colon and in the experiment with 786-0 renal was more than 100 µM throughout. The GI50 with MDA-MB-435, with CCRF-CEM leukemia, in the experiment on A498 renal and with NCI-H522 lung was more than 100 µM in each case. Besides, the TGI in the experiment with SF-295 CNS, in the experiment with MALME-3M melanoma, in the experiment with SK-MEL-28 melanoma, in the experiment on SNB-19 CNS, in the experiment with COLO 205 colon and in the experiment with 786-0 renal was more than 100 µM each time. In addition, the TGI with MDA-MB-435, in the experiment with CCRF-CEM leukemia, in the experiment with A498 renal and in the experiment on NCI-H522 lung was more than 100 µM each time.

`CCN1CCN(CC(=O)Nc2nc3ccc(NCc4ccc(C)cc4)cc3s2)CC1`: the GI50 is 2.4 µM in the experiment on SF-295 CNS; 1.04 µM in the experiment with MALME-3M melanoma; 0.929 µM with SK-MEL-28 melanoma; 5.98 µM in the experiment on SNB-19 CNS; 1.03 µM with COLO 205 colon; 4.24 µM in the experiment with 786-0 renal. Also, the GI50 in the experiment on MDA-MB-435 was 1.05 µM; with CCRF-CEM leukemia, 1.49 µM; in the experiment on A498 renal it was 5.27 µM; in the experiment with NCI-H522 lung it was 4.45 µM. Moreover, the TGI in the experiment on SF-295 CNS was 9.06 µM; in the experiment with MALME-3M melanoma, 2.43 µM; in the experiment with SK-MEL-28 melanoma, 1.92 µM; in the experiment on SNB-19 CNS, 13.5 µM; in the experiment with COLO 205 colon, 2.1 µM; with 786-0 renal, 10.9 µM. Also, the TGI came to 2.3 µM in the experiment with MDA-MB-435, 6.3 µM in the experiment with CCRF-CEM leukemia, 11.3 µM with A498 renal and 11.5 µM in the experiment with NCI-H522 lung.

As to `C/C(=C\CCc1ccsc1)CC/C=C(\C)CCCN1CCN(CCO)CC1`, the GI50 is 2.29 µM in the experiment with SF-295 CNS; 1.87 µM with MALME-3M melanoma; 1.87 µM with SK-MEL-28 melanoma; 4.4 µM with SNB-19 CNS; 1.89 µM in the experiment with COLO 205 colon; 2.27 µM in the experiment with 786-0 renal. The GI50 in the experiment with MDA-MB-435 was 2.84 µM; in the experiment with CCRF-CEM leukemia it was 2.28 µM; with A498 renal, 2.45 µM; in the experiment with NCI-H522 lung, 1.91 µM. In addition, the TGI in the experiment with SF-295 CNS is 5.64 µM; in the experiment on MALME-3M melanoma, 3.73 µM; with SK-MEL-28 melanoma, 3.91 µM; in the experiment with SNB-19 CNS, 21 µM; in the experiment on COLO 205 colon, 3.95 µM; with 786-0 renal, 5.35 µM. Also, the TGI in the experiment on MDA-MB-435 was 8.66 µM; with CCRF-CEM leukemia it was 6.51 µM; in the experiment with A498 renal, 7.51 µM; in the experiment on NCI-H522 lung, 4.71 µM.

As to `C=C1C(=O)O[C@H]2[C@H]1CC/C(COC(=O)c1cccc3ccccc13)=C\CC[C@@]1(C)O[C@@H]21`, the GI50 is 2.47 µM in the experiment on SF-295 CNS; 1.76 µM in the experiment with MALME-3M melanoma; 1.82 µM with SK-MEL-28 melanoma; 1.57 µM in the experiment on SNB-19 CNS; 1.64 µM in the experiment on COLO 205 colon; 1.69 µM with 786-0 renal. For the same compound, the GI50 in the experiment with MDA-MB-435 was 1.53 µM; with CCRF-CEM leukemia it was 0.327 µM; in the experiment with A498 renal it was 14.5 µM; with NCI-H522 lung, 1.66 µM. Further, the TGI in the experiment on SF-295 CNS came to 10.2 µM; in the experiment on MALME-3M melanoma, 3.66 µM; in the experiment on SK-MEL-28 melanoma, 3.64 µM; in the experiment with SNB-19 CNS, 3.19 µM; in the experiment on COLO 205 colon, 3.16 µM; with 786-0 renal, 3.22 µM. For the same compound, the TGI was found to be 3.35 µM in the experiment on MDA-MB-435, 12.4 µM with CCRF-CEM leukemia, 28.4 µM in the experiment on A498 renal and 3.22 µM in the experiment on NCI-H522 lung.

`CC(=O)Nc1c(I)c(C(=O)O)c(I)c(N(C)C(C)=O)c1I`: the GI50 in the experiment with SF-295 CNS, in the experiment with MALME-3M melanoma, with SK-MEL-28 melanoma, in the experiment with SNB-19 CNS, in the experiment on COLO 205 colon and in the experiment on 786-0 renal was more than 100 µM in each case. Moreover, the GI50 in the experiment on MDA-MB-435, with CCRF-CEM leukemia, in the experiment with A498 renal and in the experiment with NCI-H522 lung was more than 100 µM in each case. The TGI with SF-295 CNS, with MALME-3M melanoma, in the experiment with SK-MEL-28 melanoma, in the experiment with SNB-19 CNS, in the experiment on COLO 205 colon and with 786-0 renal was more than 100 µM in each case. For the same compound, the TGI with MDA-MB-435, in the experiment on CCRF-CEM leukemia, in the experiment on A498 renal and with NCI-H522 lung was more than 100 µM each time.

Consider `Cc1cc(Br)c2nsnc2c1[N+](=O)[O-]`, for which the GI50 in the experiment on SF-295 CNS was 2.96 µM; with MALME-3M melanoma it was 2.08 µM; in the experiment on SK-MEL-28 melanoma it was 3.34 µM; with SNB-19 CNS, 7.63 µM; in the experiment with COLO 205 colon it was 3.01 µM; with 786-0 renal, 3.96 µM. In addition, the GI50 is 2.86 µM in the experiment on MDA-MB-435, 2.16 µM in the experiment with CCRF-CEM leukemia, 5.06 µM in the experiment on A498 renal and 0.176 µM in the experiment on NCI-H522 lung. Further, the TGI with SF-295 CNS is 12.1 µM; in the experiment with MALME-3M melanoma, 6.55 µM; in the experiment on SK-MEL-28 melanoma, 7.67 µM; in the experiment with SNB-19 CNS it was 20.6 µM; in the experiment with COLO 205 colon, 7.97 µM; in the experiment with 786-0 renal, 13.7 µM. The TGI in the experiment with MDA-MB-435 is 11.1 µM; with CCRF-CEM leukemia, 5.44 µM; in the experiment on A498 renal it was 15 µM; with NCI-H522 lung, 0.381 µM.

Consider `O=C1NC(=O)C(N2CCc3ccccc32)=C1c1ccc(Cl)cc1`, for which the GI50 in the experiment with SF-295 CNS is more than 25 µM; in the experiment on MALME-3M melanoma, more than 25 µM; with SK-MEL-28 melanoma it was more than 25 µM; in the experiment on SNB-19 CNS, more than 25 µM; in the experiment with COLO 205 colon, more than 25 µM; in the experiment with 786-0 renal it was more than 10 µM. In addition, the GI50 with MDA-MB-435 is more than 25 µM; in the experiment with CCRF-CEM leukemia, more than 25 µM; in the experiment with A498 renal, more than 22.4 µM; in the experiment with NCI-H522 lung, more than 25 µM. The TGI in the experiment with SF-295 CNS was more than 25 µM; in the experiment with MALME-3M melanoma, more than 25 µM; in the experiment with SK-MEL-28 melanoma it was more than 25 µM; in the experiment with SNB-19 CNS, more than 25 µM; with COLO 205 colon, more than 25 µM; in the experiment on 786-0 renal it was more than 14.5 µM. The TGI in the experiment on MDA-MB-435, in the experiment on CCRF-CEM leukemia, in the experiment on A498 renal and in the experiment on NCI-H522 lung was more than 25 µM throughout.

Regarding `O=C(O)CN(CC(=O)O)c1ccccc1`, the TGI with SF-295 CNS, in the experiment on MALME-3M melanoma, in the experiment with SK-MEL-28 melanoma, in the experiment with SNB-19 CNS, with COLO 205 colon and in the experiment with 786-0 renal was more than 100 µM in each case. Besides, the TGI with MDA-MB-435 was more than 100 µM; in the experiment with CCRF-CEM leukemia, 83.7 µM; in the experiment on A498 renal, more than 100 µM; with NCI-H522 lung it was more than 100 µM.
